Measurements: patent US20230106032A1, “IMIDAZOTRIAZINES ACTING ON CANCER VIA INHIBITION OF CDK12” (Bayer Aktiengesellschaft, priority 2020, published 2023)

Assays:
[1] = target: T1, CDK9/CycT1 (Homo sapiens, UniProt P50750); assay: CDK9/CycT1 high ATP kinase assay (TR-FRET, 2 mM ATP); assay type: biochemical; details: read-out: CDK9/CyclinT1, 2 mM ATP (high ATP) IC50-[mol/l] (median)
T1 construct: Recombinant full-length His-tagged human CDK9 and CycT1, expressed in insect cells; His; purchased Life Technologies PV4131; host or cells: insect cells
Method: CDK9/CycT1-inhibitory activity of compounds of the present invention at a high ATP concentration after preincubation of enzyme and test compounds was quantified employing the CDK9/CycT1 TR-FRET assay as described in the following paragraphs.
Recombinant full-length His-tagged human CDK9 and CycT1, expressed in insect cells and purified by Ni-NTA affinity chromatography, were purchased from Life Technologies (Cat. No PV4131). As substrate for the kinase reaction biotinylated peptide biotin-Ttds-YISPLKSPYKISEG (C-terminus in amide form) was used which can be purchased e.g. form the company JERINI peptide technologies (Berlin, Germany).
For the assay 50 nanoL of a 100 fold concentrated solution of the test compound in DMSO was pipetted into either a black low volume 384 well microtiter plate or a black 1536 well microtiter plate (both Greiner Bio-One, Frickenhausen, Germany), 2 microL of a solution of CDK9/CycT1 in aqueous assay buffer [50 millimol/L Tris/HCl pH 8.0, 10 millimol/L MgCl2, 1.0 millimol/L dithiothreitol, 0.1 millimol/L sodium ortho-vanadate, 0.01% (v/v) Nonidet-P40 (Sigma)] were added and the mixture was incubated for 15 min at 22° C. to allow pre-binding of the test compounds to the enzyme before the start of the kinase reaction. Then the kinase reaction was started by the addition of 3 microL of a solution of adenosine-tri-phosphate (ATP, 3.3 millimol/L=> final conc. in the 5 microL assay volume is 2 millimol/L) and substrate (1.25 micromol/L=> final conc. in the 5 microL assay volume is 0.75 micromol/L) in assay buffer and the resulting mixture was incubated for a reaction time of 25 min at 22° C. The concentration of CDK9/CycT1 was adjusted depending of the activity of the enzyme lot and was chosen appropriate to have the assay in the linear range, typical concentrations were in the range of 0.5 microg/ml. The reaction was stopped by the addition of 3 microL of a solution of TR-FRET detection reagents (0.33 micromol/L streptavidine-XL665 [Cisbio Bioassays, Codolet, France] and 1.67 nanomol/L anti-RB(pSer807/pSer8l 1)-antibody from BD Pharmingen [#558389] and 2 nanomol/L LANCE EU-W1024 labeled anti-mouse IgG antibody [Perkin-Elmer, product no. AD0077]) in an aqueous EDTA-solution (167 millimol/L EDTA, 0.2% (w/v) bovine serum albumin in 100 millimol/L HEPES pH 7.5).
The resulting mixture was incubated 1 h at 22° C. to allow the formation of complex between the phosphorylated biotinylated peptide and the detection reagents. Subsequently the amount of phosphorylated substrate was evaluated by measurement of the resonance energy transfer from the Eu-chelate to the streptavidine-XL. Therefore, the fluorescence emissions at 620 nm and 665 nm after excitation at 350 nm was measured in a TR-FRET reader, e.g. a Pherastar (BMG Labtechnologies, Offenburg, Germany) or a Viewlux (Perkin-Elmer). The ratio of the emissions at 665 nm and at […] was taken as the measure for the amount of phosphorylated substrate. The data were normalised (enzyme reaction without inhibitor=0% inhibition, all other assay components but no enzyme=100% inhibition).

[2] = tested on: BRCA1 mRNA expression in MDA-MB-231 cells; assay: qRT-PCR assay: inhibition of BRCA1 mRNA expression in MDA-MB-231 cells; assay type: cell-based; details: Homo sapiens, 24 h exposure, normalised to GAPDH, read-out: RTqPCR-MDA-MB-231 IC50 [mol/l] BRCA1 (median)
Method: Tissue cultured human MDA-MB-231 human breast cancer cells were plated in 500 microL per well at 200,000 cells/well in a 24 well microtiter plate. After 24 h, the cells were exposed continuously for 24 h to test substances (substances were added with Tecan HP D300 Dispenser). RNA was prepared using Qiagen RNeasy MiniKit (#74106), RNA was quantified using a NanoDrop Equipment, and 600 nano gamms of RNA was converted to cDNA using a SuperScript VILO kit (Thermofisher #11755050) followed by qPCR amplification. BRCA1 and ATR gene expression was measured by RT-qPCR and normalised to GAPDH housekeeping gene expression. qPCR primer sets have been purchased from Thermo Fisher Scientific/Applied Biosystems: BRCA1, #Hs 01556193; ATR, #Hs 00992123; GAPDH, #Hs 03929097.

[3] = tested on: CYCLIN K; assay: CYCLIN K nuclear protein level: immunofluorescence/high content analysis in CAL-120 cells; assay type: cell-based, human; details: 24 h, nuclear CCNK staining, read-out: CYCLIN K degradation IF, DC50-[mol/l] (median)
Method: In the context of the present invention, the term “DC50 Cyclin K” refers to the DC50 values obtained according to the assay described in this section (7) herein below, i.e. the DC50 values for the degradation of Cyclin K.
CAL-120 human breast cancer cells (DSMZ ACC 459) are seeded in 1536-well microtiter plates (800 cells per well) containing 50 nanoL of compounds in Dose-Response. Control wells received DMSO or Reference Example 1. Plates are then incubated for 24 h at 37° C. in an humidified incubator and fixed with 4% PFA for 10 min. Then immunofluorescence (IF) against CYCLIN K (ThermoFisher Scientific CCNK Antibody #PA5-85020, rabbit, 1:200 dilution) is performed using standard IF protocols. Cells are then stained with Hoechst 33342 (Life Technologies, H-1399, 0.1 microg/ml) and imaged on an automated confocal microscopy system (e.g. Perkin Elmer Opera Phenix). Nuclear and cytoplasmic intensity as well as the nuclear/cytoplasmic intensity ratio is determined by automated image analysis using custom generated scripts (MetaXpress). Data is then transferred to Genedata Screener software, normalized to DMSO and control and DC50 values (degrading concentration to achieve 50% reduction of nuclear CCNK staining intensity relative to controls) are reported.

T1 sequence (P50750 whole entry): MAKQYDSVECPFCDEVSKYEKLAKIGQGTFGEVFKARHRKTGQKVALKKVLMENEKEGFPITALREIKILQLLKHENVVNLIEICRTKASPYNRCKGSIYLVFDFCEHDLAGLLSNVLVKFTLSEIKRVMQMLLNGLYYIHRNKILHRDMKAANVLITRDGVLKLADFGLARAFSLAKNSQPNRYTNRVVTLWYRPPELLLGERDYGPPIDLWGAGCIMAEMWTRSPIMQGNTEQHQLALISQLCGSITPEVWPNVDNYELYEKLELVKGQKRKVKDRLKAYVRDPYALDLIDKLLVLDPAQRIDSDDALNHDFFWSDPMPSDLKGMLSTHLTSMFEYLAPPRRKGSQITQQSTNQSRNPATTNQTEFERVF
T1 sequence (O60563 whole entry partner): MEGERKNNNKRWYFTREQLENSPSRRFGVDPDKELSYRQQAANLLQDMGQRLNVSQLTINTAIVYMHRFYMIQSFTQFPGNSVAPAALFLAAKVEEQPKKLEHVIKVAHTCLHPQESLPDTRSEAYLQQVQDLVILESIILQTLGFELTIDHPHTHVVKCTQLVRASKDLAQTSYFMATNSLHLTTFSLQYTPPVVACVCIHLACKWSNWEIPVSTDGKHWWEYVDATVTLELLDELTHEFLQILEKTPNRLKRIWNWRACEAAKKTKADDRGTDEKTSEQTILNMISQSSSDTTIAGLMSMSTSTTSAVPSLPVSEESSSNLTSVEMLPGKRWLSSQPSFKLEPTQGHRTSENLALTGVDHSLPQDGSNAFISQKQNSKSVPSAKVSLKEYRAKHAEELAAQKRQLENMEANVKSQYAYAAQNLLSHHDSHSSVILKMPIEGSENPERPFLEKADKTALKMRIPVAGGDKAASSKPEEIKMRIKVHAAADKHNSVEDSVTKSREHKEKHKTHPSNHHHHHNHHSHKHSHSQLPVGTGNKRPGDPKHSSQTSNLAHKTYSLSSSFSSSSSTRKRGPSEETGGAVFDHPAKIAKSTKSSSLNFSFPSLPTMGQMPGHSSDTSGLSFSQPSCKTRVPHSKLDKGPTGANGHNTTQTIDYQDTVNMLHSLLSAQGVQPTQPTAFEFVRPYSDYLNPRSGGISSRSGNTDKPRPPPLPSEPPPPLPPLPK

SMILES	IC50 [1]	IC50 [2]	DC50 [3]
Brc1cnc2c(NCc3nc4ccccc4[nH]3)nc(N3CCOCC3)nn12 [Example 1, N-[(1H-benzimidazol-2-yl)methyl]-7-bromo-2-(morpholin-4-yl)imidazo[2,1-f][1,2,4]triazin-4-amine]	> 20000 nM	10 nM	0.876 nM
CN(CC(C)(C)O)c1nc(NCc2nc3ccccc3[nH]2)c2ncc(C(F)(F)F)n2n1 [Example 30, 1-[{4-[(1H-benzimidazol-2-ylmethyl)amino]-7-(trifluoromethyl)imidazo[2,1-f][1,2,4]triazin-2-yl}(methyl)amino]-2-methylpropan-2-ol]	10800 nM	7.23 nM	
C[C@@H]1CN(c2nc(NCc3nc4c(F)c(F)ccc4[nH]3)c3ncc(Br)n3n2)C[C@H](C)N1 [Example 11, 7-bromo-N-[(4,5-difluoro-1H-benzimidazol-2-yl)methyl]-2-[rel-(3R,5S)-3,5-dimethylpiperazin-1-yl]imidazo[2,1-f][1,2,4]triazin-4-amine]	10800 nM	0.396 nM	0.0525 nM
C[C@@H]1CN(c2nc(NCc3nc4c(F)c(F)ccc4[nH]3)c3ncc(Br)n3n2)C[C@H](C)O1 [Example 5, 7-bromo-N-[(4,5-difluoro-1H-benzimidazol-2-yl)methyl]-2-[rel-(2R,6S)-2,6-dimethylmorpholin-4-yl]imidazo[2,1-f][1,2,4]triazin-4-amine]	3470 nM	6.39 nM	1.16 nM
C[C@@H]1CN(c2nc(NCc3nc4cc(F)ccc4[nH]3)c3ncc(Br)n3n2)C[C@H](C)N1 [Example 19, 7-bromo-2-[rel-(3R,5S)-3,5-dimethylpiperazin-1-yl]-N-[(5-fluoro-1H-benzimidazol-2-yl)methyl]imidazo[2,1-f][1,2,4]triazin-4-amine]	> 20000 nM	0.886 nM	0.0931 nM
Fc1cccc2[nH]c(CNc3nc(N4CCNCC4)nn4c(Br)cnc34)nc12 [Example 22, 7-bromo-N-[(4-fluoro-1H-benzimidazol-2-yl)methyl]-2-(piperazin-1-yl)imidazo[2,1-f][1,2,4]triazin-4-amine]	> 19700 nM	0.884 nM	0.589 nM
C[C@@H]1CN(c2nc(NCc3nc4ccccc4[nH]3)c3ncc(Br)n3n2)C[C@H](C)O1 [Example 4, N-[(1H-benzimidazol-2-yl)methyl]-7-bromo-2-[rel-(2R,6S)-2,6-dimethylmorpholin-4-yl]imidazo[2,1-f][1,2,4]triazin-4-amine]	17700 nM	25.9 nM	1.14 nM
CN1CCN(c2nc(NCc3nc4c(F)cccc4[nH]3)c3ncc(Br)n3n2)CC1 [Example 23, 7-bromo-N-[(4-fluoro-1H-benzimidazol-2-yl)methyl]-2-(4-methylpiperazin-1-yl)imidazo[2,1-f][1,2,4]triazin-4-amine]	> 20000 nM	3.12 nM	0.863 nM
Fc1cccc(-c2cnc3c(NCc4nc5ccccc5[nH]4)nc(N4CCOCC4)nn23)c1 [Example 3, N-[(1H-benzimidazol-2-yl)methyl]-7-(3-fluorophenyl)-2-(morpholin-4-yl)imidazo[2,1-f][1,2,4]triazin-4-amine]	> 20000 nM	> 100 nM	23.9 nM
C[C@@H]1CN(c2nc(NCc3nc4c(F)cccc4[nH]3)c3ncc(Br)n3n2)C[C@H](C)N1 [Example 18, 7-bromo-2-[rel-(3R,5S)-3,5-dimethylpiperazin-1-yl]-N-[(4-fluoro-1H-benzimidazol-2-yl)methyl]imidazo[2,1-f][1,2,4]triazin-4-amine]	14200 nM	1.98 nM	0.505 nM
CN1CCN(c2nc(NCc3nc4ccccc4[nH]3)c3ncc(Br)n3n2)CC1 [Example 6, N-[(1H-benzimidazol-2-yl)methyl]-7-bromo-2-(4-methylpiperazin-1-yl)imidazo[2,1-f][1,2,4]triazin-4-amine]	> 20000 nM	69 nM	2.31 nM
Fc1ccc2[nH]c(CNc3nc(N4CCOCC4)nn4c(Br)cnc34)nc2c1 [Example 20, 7-bromo-N-[(5-fluoro-1H-benzimidazol-2-yl)methyl]-2-(morpholin-4-yl)imidazo[2,1-f][1,2,4]triazin-4-amine]	> 20000 nM	3.54 nM	0.0659 nM
Fc1cccc2[nH]c(CNc3nc(N4CCOCC4)nn4c(Br)cnc34)nc12 [Example 12, 7-bromo-N-[(4-fluoro-1H-benzimidazol-2-yl)methyl]-2-(morpholin-4-yl)imidazo[2,1-f][1,2,4]triazin-4-amine]	> 20000 nM		0.292 nM
C[C@@H]1CN(c2nc(NCc3nc4ccccc4[nH]3)c3ncc(Br)n3n2)C[C@H](C)N1 [Example 9, N-[(1H-benzimidazol-2-yl)methyl]-7-bromo-2-[rel-(3R,5S)-3,5-dimethylpiperazin-1-yl]imidazo[2,1-f][1,2,4]triazin-4-amine]	> 20000 nM	3.52 nM	0.111 nM
C[C@@H]1CN(c2nc(NCc3nc4ccccc4[nH]3)c3ncc(C(F)(F)F)n3n2)C[C@H](C)N1.O=CO [Example 24, N-[(1H-benzimidazol-2-yl)methyl]-2-[rel-(3R,5S)-3,5-dimethylpiperazin-1-yl]-7-(trifluoromethyl)imidazo[2,1-f][1,2,4]triazin-4-amine Formate (1/1)]	> 20000 nM	1.1 nM	0.0613 nM
FC(F)(F)c1cnc2c(NCc3nc4ccccc4[nH]3)nc(N3CCOCC3)nn12 [Example 26, N-[(1H-benzimidazol-2-yl)methyl]-2-(morpholin-4-yl)-7-(trifluoromethyl)imidazo[2,1-f][1,2,4]triazin-4-amine]	> 20000 nM	3.64 nM	0.552 nM
N#Cc1cnc2c(NCc3nc4ccccc4[nH]3)nc(N3CCOCC3)nn12 [Example 2, 4-{[(1H-benzimidazol-2-yl)methyl]amino}-2-(morpholin-4-yl)imidazo[2,1-f][1,2,4]triazine-7-carbonitrile]	> 20000 nM	11.1 nM	3.58 nM
